Reference: the NIST ThermoML archive (doi:10.1016/j.jct.2016.03.026)
Numbers after ± are expanded uncertainties.

Experiment: xn = mol fraction of the nth substance listed
Details: 304.21 K, Fluid (supercritical or subcritical phases), Vibrating tube method, x1 = 0.97

O=C=O [carbon dioxide] + CO
Details | mass density [kg/m3]
10625 kPa | 791.47 ± 0.82
10650 kPa | 791.91 ± 0.82
10675 kPa | 792.32 ± 0.82
10700 kPa | 792.79 ± 0.82
10725 kPa | 793.26 ± 0.82
10750 kPa | 793.67 ± 0.82
10775 kPa | 794.08 ± 0.82
10800 kPa | 794.49 ± 0.82
10825 kPa | 794.91 ± 0.82
10850 kPa | 795.38 ± 0.82
10875 kPa | 795.84 ± 0.82
10900 kPa | 796.21 ± 0.82
10925 kPa | 796.66 ± 0.82
10950 kPa | 797.06 ± 0.82
10975 kPa | 797.53 ± 0.82
11000 kPa | 797.93 ± 0.82
11025 kPa | 798.32 ± 0.82
11050 kPa | 798.73 ± 0.82
11075 kPa | 799.17 ± 0.82
11100 kPa | 799.63 ± 0.82
11125 kPa | 799.99 ± 0.82
11150 kPa | 800.45 ± 0.82
11175 kPa | 800.8 ± 0.82
11200 kPa | 801.23 ± 0.82
11225 kPa | 801.64 ± 0.82
11250 kPa | 802.05 ± 0.82
11275 kPa | 802.5 ± 0.82
11300 kPa | 802.86 ± 0.82
11325 kPa | 803.31 ± 0.82
11350 kPa | 803.73 ± 0.82
11375 kPa | 804.09 ± 0.82
11400 kPa | 804.56 ± 0.82
11425 kPa | 804.93 ± 0.82
11450 kPa | 805.27 ± 0.82
11475 kPa | 805.69 ± 0.82
11500 kPa | 806.12 ± 0.82
11525 kPa | 806.52 ± 0.82
11550 kPa | 806.91 ± 0.82
11575 kPa | 807.3 ± 0.82
11600 kPa | 807.66 ± 0.82
11625 kPa | 808.01 ± 0.82
11650 kPa | 808.41 ± 0.82
11675 kPa | 808.81 ± 0.82
11700 kPa | 809.25 ± 0.82
11725 kPa | 809.62 ± 0.82
11750 kPa | 810 ± 0.82
11775 kPa | 810.37 ± 0.82
11800 kPa | 810.74 ± 0.82
11825 kPa | 811.11 ± 0.82
11850 kPa | 811.47 ± 0.82
11875 kPa | 811.83 ± 0.82
11900 kPa | 812.25 ± 0.82
11925 kPa | 812.53 ± 0.82
11950 kPa | 812.98 ± 0.82
11975 kPa | 813.33 ± 0.82
12000 kPa | 813.7 ± 0.82
12025 kPa | 814.08 ± 0.82
12050 kPa | 814.43 ± 0.82
12075 kPa | 814.76 ± 0.82
12100 kPa | 815.17 ± 0.82
12125 kPa | 815.5 ± 0.82
12150 kPa | 815.82 ± 0.82
12175 kPa | 816.22 ± 0.82
12200 kPa | 816.54 ± 0.82
12225 kPa | 816.89 ± 0.82
12250 kPa | 817.23 ± 0.82
12275 kPa | 817.54 ± 0.82
12300 kPa | 817.94 ± 0.82
12325 kPa | 818.27 ± 0.82
12350 kPa | 818.61 ± 0.82
12375 kPa | 818.95 ± 0.82
12400 kPa | 819.29 ± 0.82
12425 kPa | 819.62 ± 0.82
12450 kPa | 819.95 ± 0.82
12475 kPa | 820.29 ± 0.82
12500 kPa | 820.61 ± 0.82
12525 kPa | 820.93 ± 0.82
12550 kPa | 821.24 ± 0.82
12575 kPa | 821.61 ± 0.82
12600 kPa | 821.94 ± 0.82
12625 kPa | 822.23 ± 0.82
12650 kPa | 822.53 ± 0.82
12675 kPa | 822.85 ± 0.82
12700 kPa | 823.18 ± 0.82
12725 kPa | 823.45 ± 0.82
12750 kPa | 823.79 ± 0.82
12775 kPa | 824.13 ± 0.82
12800 kPa | 824.43 ± 0.82
12825 kPa | 824.72 ± 0.82
12850 kPa | 825.02 ± 0.82
12875 kPa | 825.36 ± 0.82
12900 kPa | 825.66 ± 0.82
12925 kPa | 825.97 ± 0.82
12950 kPa | 826.28 ± 0.82
12975 kPa | 826.52 ± 0.82
13000 kPa | 826.85 ± 0.82
13025 kPa | 827.19 ± 0.82
13050 kPa | 827.45 ± 0.82
13075 kPa | 827.74 ± 0.82
13100 kPa | 828.02 ± 0.82
13125 kPa | 828.34 ± 0.82
13150 kPa | 828.59 ± 0.82
13175 kPa | 828.91 ± 0.82
13200 kPa | 829.21 ± 0.82
13225 kPa | 829.5 ± 0.82
13250 kPa | 829.81 ± 0.82
13275 kPa | 830.06 ± 0.82
13300 kPa | 830.33 ± 0.82
13325 kPa | 830.63 ± 0.82
13350 kPa | 830.91 ± 0.82
13375 kPa | 831.19 ± 0.82
13400 kPa | 831.47 ± 0.82
13425 kPa | 831.75 ± 0.82
13450 kPa | 832.03 ± 0.82
13475 kPa | 832.3 ± 0.82
13500 kPa | 832.56 ± 0.82
13525 kPa | 832.83 ± 0.82
13550 kPa | 833.09 ± 0.82
13575 kPa | 833.35 ± 0.82
13600 kPa | 833.6 ± 0.82
13625 kPa | 833.85 ± 0.82
13650 kPa | 834.12 ± 0.82
13675 kPa | 834.42 ± 0.82
13700 kPa | 834.66 ± 0.82
13725 kPa | 834.9 ± 0.82
13750 kPa | 835.2 ± 0.82
13775 kPa | 835.42 ± 0.82
13800 kPa | 835.64 ± 0.82
13825 kPa | 835.86 ± 0.82
13850 kPa | 836.06 ± 0.82
13875 kPa | 836.22 ± 0.82
13900 kPa | 836.51 ± 0.82
13925 kPa | 836.81 ± 0.82
13950 kPa | 837.08 ± 0.82
13975 kPa | 837.35 ± 0.82
14000 kPa | 837.64 ± 0.82
14025 kPa | 837.92 ± 0.82
14050 kPa | 838.19 ± 0.82
14075 kPa | 838.5 ± 0.82
14100 kPa | 838.78 ± 0.82
14125 kPa | 839.03 ± 0.82
14150 kPa | 839.31 ± 0.82
14175 kPa | 839.62 ± 0.82
14200 kPa | 839.87 ± 0.82
14225 kPa | 840.12 ± 0.82
14250 kPa | 840.43 ± 0.82
14275 kPa | 840.68 ± 0.82
14300 kPa | 840.92 ± 0.82
14325 kPa | 841.24 ± 0.82
14350 kPa | 841.49 ± 0.82
14375 kPa | 841.72 ± 0.82
14400 kPa | 842.04 ± 0.82
14425 kPa | 842.27 ± 0.82
14450 kPa | 842.52 ± 0.82
14475 kPa | 842.78 ± 0.82
14500 kPa | 843.08 ± 0.82
14525 kPa | 843.34 ± 0.82
14550 kPa | 843.58 ± 0.82
14575 kPa | 843.9 ± 0.82
14600 kPa | 844.14 ± 0.82
14625 kPa | 844.38 ± 0.82
14650 kPa | 844.61 ± 0.82
14675 kPa | 844.86 ± 0.82
14700 kPa | 845.17 ± 0.82
14725 kPa | 845.44 ± 0.82
14750 kPa | 845.72 ± 0.82
14775 kPa | 845.96 ± 0.82
14800 kPa | 846.19 ± 0.82
14825 kPa | 846.5 ± 0.82
14850 kPa | 846.73 ± 0.82
14875 kPa | 846.98 ± 0.82
14900 kPa | 847.24 ± 0.82
14925 kPa | 847.52 ± 0.82
14950 kPa | 847.71 ± 0.82
14975 kPa | 848 ± 0.82
15000 kPa | 848.29 ± 0.82
15025 kPa | 848.51 ± 0.82
15050 kPa | 848.76 ± 0.82
15075 kPa | 849.02 ± 0.82
15100 kPa | 849.3 ± 0.82
15125 kPa | 849.56 ± 0.82
15150 kPa | 849.76 ± 0.82
15175 kPa | 850.04 ± 0.82
15200 kPa | 850.3 ± 0.82
15225 kPa | 850.56 ± 0.82
15250 kPa | 850.76 ± 0.82
15275 kPa | 851.04 ± 0.82
15300 kPa | 851.23 ± 0.82
15325 kPa | 851.51 ± 0.82
15350 kPa | 851.79 ± 0.82
15375 kPa | 851.98 ± 0.82
15400 kPa | 852.22 ± 0.82
15425 kPa | 852.43 ± 0.82
15450 kPa | 852.7 ± 0.82
15475 kPa | 852.92 ± 0.82
15500 kPa | 853.2 ± 0.82
15525 kPa | 853.4 ± 0.82
15550 kPa | 853.64 ± 0.82
15575 kPa | 853.89 ± 0.82
15600 kPa | 854.15 ± 0.82
15625 kPa | 854.39 ± 0.82
15650 kPa | 854.57 ± 0.82
15675 kPa | 854.81 ± 0.82
15700 kPa | 855.06 ± 0.82
15725 kPa | 855.3 ± 0.82
15750 kPa | 855.49 ± 0.82
15775 kPa | 855.71 ± 0.82
15800 kPa | 855.96 ± 0.82
15825 kPa | 856.2 ± 0.82
15850 kPa | 856.41 ± 0.82
15875 kPa | 856.68 ± 0.82
15900 kPa | 856.93 ± 0.82
15925 kPa | 857.08 ± 0.82
15950 kPa | 857.32 ± 0.82
15975 kPa | 857.56 ± 0.82
16000 kPa | 857.77 ± 0.82
16025 kPa | 857.95 ± 0.82
16050 kPa | 858.19 ± 0.82
16075 kPa | 858.44 ± 0.82
16100 kPa | 858.66 ± 0.82
16125 kPa | 858.84 ± 0.82
16150 kPa | 859.07 ± 0.82
16175 kPa | 859.32 ± 0.82
16200 kPa | 859.52 ± 0.82
16225 kPa | 859.74 ± 0.82
16250 kPa | 859.97 ± 0.82
16275 kPa | 860.2 ± 0.82
16300 kPa | 860.35 ± 0.82
16325 kPa | 860.63 ± 0.82
16350 kPa | 860.83 ± 0.82
16375 kPa | 861.01 ± 0.82
16400 kPa | 861.22 ± 0.82
16425 kPa | 861.43 ± 0.82
16450 kPa | 861.65 ± 0.82
16475 kPa | 861.85 ± 0.82
16500 kPa | 862.01 ± 0.82
16525 kPa | 862.21 ± 0.82
16550 kPa | 862.42 ± 0.82
16575 kPa | 862.62 ± 0.82
16600 kPa | 862.9 ± 0.82
16625 kPa | 863.08 ± 0.82
16650 kPa | 863.26 ± 0.82
16675 kPa | 863.56 ± 0.82
